According to ChEMBL document CHEMBL5360529, “Pyrimidine derivatives with antitubercular activity” (Eur J Med Chem, 2023):
Converted amounts (≈) assume the structure as drawn.

Legend:
[1] = tested on: Mycobacterium tuberculosis; assay: Antimycobacterial activity against Mycobacterium tuberculosis H37RV assessed as bacterial growth inhibition; assay type: functional
[2] = tested on: Mycobacterium tuberculosis; assay: Antimycobacterial activity against Mycobacterium tuberculosis H37Rv assessed as bacterial growth inhibition by microplate Alamar blue assay; assay type: functional
Thymidylate kinase [3] = target: T1, Thymidylate kinase (Mycobacterium tuberculosis, UniProt P9WKE1); assay: Inhibition of Mycobacterium tuberculosis TMPK assessed as inhibition constant
T1 sequence (P9WKE1 whole entry): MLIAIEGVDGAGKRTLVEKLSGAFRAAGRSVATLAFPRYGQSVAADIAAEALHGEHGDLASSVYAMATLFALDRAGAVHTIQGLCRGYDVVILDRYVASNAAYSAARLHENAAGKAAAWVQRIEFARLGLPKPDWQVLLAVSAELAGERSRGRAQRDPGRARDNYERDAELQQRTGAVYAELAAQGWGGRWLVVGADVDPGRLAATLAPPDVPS

Thymidylate kinase [4] = target: T2, Thymidylate kinase (Homo sapiens, UniProt P23919); assay: Inhibition of human TMPK assessed as inhibition constant
T2 sequence (P23919 whole entry): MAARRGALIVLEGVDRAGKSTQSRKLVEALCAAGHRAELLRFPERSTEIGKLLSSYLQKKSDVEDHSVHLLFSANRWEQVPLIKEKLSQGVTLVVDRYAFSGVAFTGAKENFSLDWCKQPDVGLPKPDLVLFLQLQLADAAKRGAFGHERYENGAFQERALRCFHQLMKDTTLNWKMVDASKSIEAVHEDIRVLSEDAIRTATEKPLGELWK

[5] = Selectivity index, ratio of Ki for human TMPK to Ki for Mycobacterium tuberculosis TMPK
[6] = tested on: Mycobacterium tuberculosis; assay: Antimycobacterial activity against Mycobacterium tuberculosis H37Rv infected in po dosed C57BL/6 mouse assessed as bacterial growth inhibition measured after 8 days; assay type: functional; details: 192 h, time 8 day
HepG2 = assay: Anticancer activity against human HepG2 cells assessed as cell growth inhibition; assay type: functional, cell-based
[7] = tested on: Mycobacterium tuberculosis; assay: Antimycobacterial activity against Mycobacterium tuberculosis infected in Macrophage cell (unknown origin) assessed as bacterial growth inhibition; assay type: functional
[8] = Selectivity index, ratio of IC50 for anticancer activity against human HepG2 cells to MIC for antimycobacterial activity against Mycobacterium tuberculosis; assay type: toxicity, cell-based; details: read-out: Selectivity Index
Adenosine kinase [9] = target: Adenosine kinase (Mycobacterium tuberculosis (strain CDC 1551 / Oshkosh), UniProt P9WID4); assay: Inhibition of Mycobacterium tuberculosis ADK
[10] = tested on: Mycobacterium tuberculosis; assay: Antimycobacterial activity against Mycobacterium tuberculosis assessed as bacterial growth inhibition measured after 14 to 21 day; assay type: functional; details: time 14-21 day
Adenosine kinase [11] = target: Adenosine kinase (Homo sapiens, UniProt P55263); assay: Inhibition of human ADK
[12] = tested on: Mycobacterium tuberculosis; assay: Antimycobacterial activity against Mycobacterium tuberculosis My331/88 assessed as bacterial growth inhibition measured after 14 to 21 day; assay type: functional; details: time 14-21 day

Sequence of Adenosine kinase (Mycobacterium tuberculosis (strain CDC 1551 / Oshkosh), UniProt P9WID4) (P9WID4 whole entry): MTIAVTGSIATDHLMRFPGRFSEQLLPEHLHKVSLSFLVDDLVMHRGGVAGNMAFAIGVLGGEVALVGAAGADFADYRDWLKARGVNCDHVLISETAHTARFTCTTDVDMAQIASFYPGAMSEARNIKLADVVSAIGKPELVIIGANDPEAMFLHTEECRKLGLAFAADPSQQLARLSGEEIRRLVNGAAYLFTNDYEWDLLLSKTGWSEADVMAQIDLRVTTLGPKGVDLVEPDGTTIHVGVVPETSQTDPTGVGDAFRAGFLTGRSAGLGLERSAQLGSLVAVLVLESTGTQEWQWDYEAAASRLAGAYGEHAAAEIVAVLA
Sequence of Adenosine kinase (Homo sapiens, UniProt P55263) (P55263 whole entry): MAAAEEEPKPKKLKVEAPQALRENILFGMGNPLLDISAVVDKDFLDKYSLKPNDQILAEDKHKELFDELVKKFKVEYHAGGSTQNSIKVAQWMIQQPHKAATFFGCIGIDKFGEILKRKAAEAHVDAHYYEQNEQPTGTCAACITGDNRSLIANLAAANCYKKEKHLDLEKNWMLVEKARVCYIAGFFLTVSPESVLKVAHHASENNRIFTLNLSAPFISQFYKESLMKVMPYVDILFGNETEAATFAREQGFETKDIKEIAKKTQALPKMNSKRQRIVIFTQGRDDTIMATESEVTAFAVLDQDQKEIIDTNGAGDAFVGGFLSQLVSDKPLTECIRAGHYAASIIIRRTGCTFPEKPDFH

NCC[C@H](O)C(=O)N[C@@H]1C[C@H](N)[C@@H](O[C@H]2O[C@H](CN)[C@@H](O)[C@H](O)[C@H]2O)[C@H](O)[C@H]1O[C@H]1O[C@H](CO)[C@@H](O)[C@H](N)[C@H]1O [AMIKACIN]
MIC [1]: 2 µg/mL

COc1ccc(CNc2nc(C)nc(-c3ccco3)c2NC=O)cc1
IC90 [1]: 0.33 µg/mL (≈ 0.975 µM)

N#Cc1c(Cl)nc(SCc2ccc(Cl)cc2)nc1-c1cccs1
MIC [2]: 0.78 µg/mL

COc1ccc(-c2cc(=O)n3nc(C)c(-c4ccc(Cl)cc4)c3[nH]2)cc1
MIC [1]: 3.12 µM

COc1ccc(Cn2cnc3c(-c4ccco4)nc(Cl)nc32)cc1
MIC [1]: 0.78 µg/mL

CCCSc1nc(Cl)c(C#N)c(-c2cccc(F)c2)n1
MIC [2]: 0.78 µg/mL

Cc1nn2c(=O)cc(-c3ccccc3)[nH]c2c1-c1ccccc1
MIC [1]: 3.12 µM

Cc1cn([C@H]2C[C@H](NC(=O)N[C@H]3C[C@H](c4[nH]c(=O)[nH]c(=O)c4C)O[C@@H]3O)[C@@H](CO)O2)c(=O)[nH]c1=O
Ki (Thymidylate kinase [3]): 37 µM

CCCSc1nc(Cl)c(C#N)c(-c2ccco2)n1
MIC [2]: 0.78 µg/mL

Cc1cn([C@H]2C[C@H](O)[C@@H](CNC(=S)Nc3ccc(Cl)c(C(F)(F)F)c3)O2)c(=O)[nH]c1=O
Ki (Thymidylate kinase [4]): 362 µM
Ratio Ki [5]: 600
Ki (Thymidylate kinase [3]): 0.6 µM

O=C(C1CCN(c2cc(N3CCOCC3)ncn2)CC1)N1CCC(Cc2ccc(F)cc2)CC1
ED99 [6]: 29 mg/kg

CC(=O)NC[C@H]1CN(c2ccc(N3CCOCC3)c(F)c2)C(=O)O1 [LINEZOLID]
ED99 [6]: 28 mg/kg

Cc1nn2c(=O)cc(-c3ccc(F)c(F)c3)[nH]c2c1-c1ccccc1
IC50 (HepG2): > 100 µM
MIC [7]: 2.73 µM (≈ 0.921 µg/mL)
MIC [1]: 1.56 µM
selectivity ratio [8]: > 36

COc1ccc(CNc2nc(F)nc(-c3ccco3)c2NC=O)cc1
IC90 [1]: < 0.2 µg/mL

COc1c(N2C[C@@H]3CCCN[C@@H]3C2)c(F)cc2c(=O)c(C(=O)O)cn(C3CC3)c12 [MOXIFLOXACIN]
ED99 [6]: 27.7 mg/kg

O=c1cc(CC2CCCCC2)[nH]c2c(-c3ccc(Cl)cc3)cnn12
MIC [1]: 0.78 µM

O=C(C1CCN(c2cc(N3CCOCC3)ncn2)CC1)N1CCC(Oc2ccc(F)cc2)CC1
ED99 [6]: 30 mg/kg

Cc1cn([C@@H]2O[C@H](CO)[C@H]3CNC(=S)O[C@H]32)c(=O)[nH]c1=O
Ratio Ki [5]: 200

O=c1cc(-c2ccc(Cl)cc2)[nH]c2c(-c3ccc(Cl)cc3)cnn12
MIC [1]: 12.5 µM

OC[C@H]1O[C@@H](n2ccc3c(-c4cccc5c4oc4ccccc45)nc(F)nc32)[C@H](O)[C@@H]1O
IC50 (Adenosine kinase [9]): 0.18 µM
MIC [10]: 32 µM (≈ 13.9 µg/mL)
IC50 (Adenosine kinase [11]): > 20 µM
MIC [12]: 32 µM (≈ 13.9 µg/mL)

OC[C@H]1O[C@@H](n2ccc3c(-c4cc5ccccc5o4)nc(F)nc32)[C@H](O)[C@@H]1O
IC50 (Adenosine kinase [9]): 1.2 µM
IC50 (Adenosine kinase [11]): > 10 µM
MIC [12]: 62.5 µM (≈ 24.1 µg/mL)

O=c1nc(N2CCN(CC3CCCCC3)CC2)sc2c([N+](=O)[O-])cc(C(F)(F)F)cc12 [MACOZINONE]
MIC [1]: ≤ 0.00019 µg/mL

CCCSc1nc(Cl)c(C#N)c(-c2cccs2)n1
MIC [2]: 0.78 µg/mL

COc1ccc(CNc2nc(Cl)nc(-c3ccco3)c2NC=O)cc1
IC90 [1]: 0.29 µg/mL (≈ 0.808 µM)
